The text below walks through data of PMC5484485, “In vitro and in vivo effects of kisspeptin antagonists p234, p271, p354, and p356 on GPR54 activation” (PLoS ONE, 2017).

Square brackets hold non-standard residues; d marks the D form. Ends that are not written are not given here.

One experiment relates to plasma LH concentration. The experiment in a line: Plasma LH in anestrous Beagle bitches during antagonist infusion and after cKP10 bolus. In kind it is in vivo, dog. The following applies: n = 6. The source says: Thirteen adult anestrous Beagle bitches were used for this study. Six dogs with a median age of 89 months (range 43–122 months) were used as control group, receiving cKP10 without an antagonist. Eight dogs with a median age of 52 months (range 31–116 months) were used for the antagonist experiments. One dog was first used in the control group and 12 months later for the antagonist experiments. Of the eight dogs used for the antagonist experiments, four received p271, p354, and p356. In two of the eight dogs both p354 and p356 were tested, while in the remaining two dogs only p271 was tested, in order to test every antagonist in 6 dogs. The time between testing of different kisspeptin antagonists was at least 5 days (range 5–15 days) to ensure that there were no peptide residues. Kisspeptin antagonist p234 per se was not tested in vivo because p271 is in fact p234 with a penetratin tag to enhance passage across the blood-brain barrier, as has been described for use with peripheral administration.
Kisspeptin antagonists (50 μg/kg/h) were administered continuously for three hours via a catheter in the cephalic vein. Two hours after the start of the infusion, a single bolus of cKP10 (0.5 μg/kg) was administered intravenously. Blood samples were collected from the jugular vein by venipuncture at -40 min and 0 min before the antagonist infusion, and then every 30 min for two hours. After the administration of cKP10, blood samples were collected at 10, 20, 40, and 60 min (i.e., 130, 140, 160, and 180 min after the start of the antagonist infusion).
As a control, KP stimulation tests (without the administration of a kisspeptin antagonist) were performed in six dogs. Blood samples were collected from the jugular vein by venipuncture at -40 min and 0 min before, and then at 10, 20, 40, and 60 min after administration of cKP10 (0.5 μg/kg). Plasma LH concentrations were measured in all blood samples.
Plasma LH concentrations were measured with a heterologous radioimmunoassay validated for the dog, as described previously. The intra- and interassay CVs for values above 0.5 μg/l were 2.3 and 10.5%, respectively, and the limit of quantitation was 0.3 μg/l.
In both groups of dogs (experimental and control), the basal plasma LH concentration was calculated for each dog as the mean of the values at –40 and 0 min before cKP10 or antagonist administration. All LH values that exceeded the mean of all basal samples plus 3 SD were attributed to pulsatile secretion and were treated as outliers and excluded from statistical analysis. Log transformation of plasma LH concentrations was used because data were not normally distributed. A linear mixed model was used to analyze differences in plasma LH concentrations before and after KP10, with or without a kisspeptin antagonist (group effects: p271, p354, p356, and controls), with Bonferroni correction. P<0.05 was considered significant.

In experiment [1] the target is T1, human GPR54 (Homo sapiens, UniProt Q969F8). Briefly: Flow cytometric calcium flux assay, response to peptide alone (agonist / intrinsic activity). In kind it is cell-based. Details: host or cells: rat hematopoietic CHEM1 cells expressing endogenous Galpha15. The procedure:
In vitro analyses of the effects of kisspeptin and kisspeptin antagonists, were performed using HT[…] cells (rat hematopoietic CHEM1 cells expressing endogenous Gα15 and, stably expressing the human GPR54 receptor (Millipore BV, the Netherlands), CHEM1-GPR54. Cells were counted and suspended in HBSS+++ at a concentration of 5*10^6 cells/ml. To load the cells with the fluorescent dye ester they were incubated in HBSS+++ adjusted to a concentration of 2 μM Fluo-3 AM (Molecular Probes, Life Technologies, the Netherlands) for 1h at 37°C under agitation in the dark. After incubation, the cells were washed by adding HBSS+++ to a volume of 10 ml followed by centrifugation (5 min, 150 x g) to remove excess of Fluo-3AM. […] Thereafter the tube was removed briefly and 25 μl peptide (see below) was added, after which aspiration and analysis continued. For statistical analyses fluorescent data recorded during the time interval 30-60 seconds after initiation of measurement were used. […] Experiments were performed 3 times. Representative flow cytometry results are depicted in Fig 1. […] We then assessed whether these antagonists could compete with KP10 for its receptor. […] For this purpose 25 μl quantities of the antagonists were added to 200 μl of Fluo-3 AM labelled cells (10^6 cells/ml) and incubated for 15 min. […] Peptides p354 and p356 were tested three times with both human and canine KP10; while peptides p234 and p271 were tested three times with human KP10 and once with canine KP10. […] A multivariate general linear model was set up to analyze differences in calcium response between the different concentrations, with Dunnett's test as a post hoc procedure for the antagonists and Bonferroni's test for the agonists.
(In flow cytometry, cells or beads pass a laser one at a time.)

The subject of the next experiment is kisspeptin receptor. The following applies: ref unpublished data; cited from earlier work. The procedure: The following peptides were tested for antagonistic properties on the kisspeptin receptor: p234 ((D-Ala)-Asn-Trp-Asn-Gly-Phe-Gly-(D-Trp)-Arg-Phe-NH2), p271 (Arg-Arg-Met-Lys-Trp-Lys-Lys-Tyr-(D-Ala)-Asn-Trp-Asn-Gly-Phe-Gly-(D-Trp)-Arg-Phe-NH2), p354 ((D-Ala)-Tyr-Asn-Phe-Asn-Gly-Phe-Gly-(D-Trp)-Arg-Phe-NH2), and p356 ((D-Ala)-Tyr-Asn-Trp-Asn-Gly-Phe-Gly-(D-Trp)-Lys-Phe-NH2). Peptide 354 and p356 are next generation analogs refining p234.

Experiment [2] deals with T1, human GPR54. Briefly: Flow cytometric calcium flux assay, KP10-induced response after 15 min pre-incubation with antagonist. Also on record: host or cells: rat hematopoietic CHEM1 cells expressing endogenous Galpha15. In kind it is cell-based. The note with it: 10^-5 M; 10^-8 M KP10; P<0.001; ascribed to intrinsic response, not antagonism. The procedure:
In vitro analyses of the effects of kisspeptin and kisspeptin antagonists, were performed using HT[…] cells (rat hematopoietic CHEM1 cells expressing endogenous Gα15 and, stably expressing the human GPR54 receptor (Millipore BV, the Netherlands), CHEM1-GPR54. Cells were counted and suspended in HBSS+++ at a concentration of 5*10^6 cells/ml. To load the cells with the fluorescent dye ester they were incubated in HBSS+++ adjusted to a concentration of 2 μM Fluo-3 AM (Molecular Probes, Life Technologies, the Netherlands) for 1h at 37°C under agitation in the dark. After incubation, the cells were washed by adding HBSS+++ to a volume of 10 ml followed by centrifugation (5 min, 150 x g) to remove excess of Fluo-3AM. […] Thereafter the tube was removed briefly and 25 μl peptide (see below) was added, after which aspiration and analysis continued. For statistical analyses fluorescent data recorded during the time interval 30-60 seconds after initiation of measurement were used. […] We then assessed whether these antagonists could compete with KP10 for its receptor. […] For this purpose 25 μl quantities of the antagonists were added to 200 μl of Fluo-3 AM labelled cells (10^6 cells/ml) and incubated for 15 min. […] Peptides p354 and p356 were tested three times with both human and canine KP10; while peptides p234 and p271 were tested three times with human KP10 and once with canine KP10. To analyze the effects of different concentrations of the KP antagonists on the calcium response due to KP10 addition, the differences in fluorescence before and after KP10 were calculated (the calcium response). The calcium response ratios were calculated as the calcium response of the CHEM1-GPR54 cells pre-incubated with different concentrations of KP antagonist and the control (the calcium response of the cells without KP antagonist). These calcium response ratios were log transformed and used for further analysis by univariate analysis of variance, with the Dunnett's test as post hoc test. The calcium response ratios were set as dependent variables and the different concentrations of the antagonists and the two types of KP10 were used as fixed factors. The residuals were normally distributed.

Where [3] appears, read: antagonist 50 μg/kg/h iv, cKP10 0.5 μg/kg iv.

T1 sequence (Q969F8 whole entry): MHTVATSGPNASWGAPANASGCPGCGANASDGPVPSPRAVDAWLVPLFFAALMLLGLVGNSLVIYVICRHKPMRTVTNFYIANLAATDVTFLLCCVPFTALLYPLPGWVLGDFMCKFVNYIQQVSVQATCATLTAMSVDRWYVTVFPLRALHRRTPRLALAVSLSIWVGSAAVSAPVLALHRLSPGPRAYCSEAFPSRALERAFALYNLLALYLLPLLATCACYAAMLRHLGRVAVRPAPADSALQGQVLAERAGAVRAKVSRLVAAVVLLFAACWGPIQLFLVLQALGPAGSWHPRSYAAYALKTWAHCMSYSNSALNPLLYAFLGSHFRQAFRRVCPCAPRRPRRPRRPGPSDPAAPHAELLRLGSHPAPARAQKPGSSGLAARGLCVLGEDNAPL

On to [dA]YNWNGFG[dW]KF-NH2 [p356], for which the “Median (and range) plasma LH, t = 30” value with plasma LH concentration (30 min of antagonist infusion 50 μg/kg/h iv) is 4.1 (2.4–12.8) μg/L. Further, in the experiment with plasma LH concentration (60 min of antagonist infusion 50 μg/kg/h iv), the “Median (and range) plasma LH, t = 60” value is on record as 3.9 (2.2–7.7) μg/L. Further, the “Median (and range) plasma LH, t = 90” value with plasma LH concentration (90 min of antagonist infusion 50 μg/kg/h iv) is 4.5 (2.8–6.7) μg/L. In the experiment with plasma LH concentration (120 min of antagonist infusion 50 μg/kg/h iv, before cKP10), the “Median (and range) plasma LH, t = 120” value is given as 4.9 (2.1–10.4) μg/L. For the same substance, in the experiment with plasma LH concentration (setting [3]), the “median maximum increment in plasma LH concentration after cKP10 during antagonist administration” value was determined as 8.1 µg/L and the “range of maximum increment in plasma LH concentration after cKP10 during antagonist administration” value was 6.3 to 18.3 µg/L. In addition, the “Median (and range) plasma LH, t = 130 / t = 10*” value in the experiment with plasma LH concentration (antagonist infusion 50 μg/kg/h iv, 10 min after cKP10 0.5 μg/kg iv) is 12.8 (9.1–23.1) μg/L. Moreover, the “Median (and range) plasma LH, t = 140 / t = 20*” value in the experiment with plasma LH concentration (antagonist infusion 50 μg/kg/h iv, 20 min after cKP10 0.5 μg/kg iv) is 8.7 (7.1–13.4) μg/L. Besides, the “Median (and range) plasma LH, t = 180 / t = 60*” value in the experiment with plasma LH concentration (antagonist infusion 50 μg/kg/h iv, 60 min after cKP10 0.5 μg/kg iv) is 4.7 (3.6–12.8) μg/L. In addition, the “Median (and range) plasma LH, Basal” value with plasma LH concentration (before antagonist infusion (mean of -40 and 0 min per dog)) is recorded as 4.3 (2.8–6.0) μg/L. In the experiment on plasma LH concentration (continuous iv 50 μg/kg/h, anestrous bitches), the “effect on basal plasma LH concentration” value is reported as “did not cause significant alterations”. For the same substance, the “intrinsic calcium response at highest concentration” value on human GPR54 [1] (10^-5 M, P = 0.001) is reported as “clear calcium response”. Besides, the “pharmacological character on CHEM1-GPR54 cells” value on human GPR54 [1] (authors' conclusion) is recorded as “partial agonist”. In addition, the “binding and inhibition of kisspeptin action on inositol generation, potency range” value with kisspeptin receptor is reported as “nanomolar range”. Moreover, the “calcium response ratio versus control at highest concentration” value on human GPR54 [2] was “smaller than the negative control”.
